Measurements reported in patent publication EP4692094A1 (Beijing Konruns Pharmaceutical Co., Ltd., priority 2023, dated 2024).

Target: T1, KAT6A (Homo sapiens, UniProt Q92794)
T1 construct: purchased active motife (Active Motif) 81223
Assay: Enzymatic activity assay for KAT6A acetyltransferase (TR-FRET, acetylation of histone substrate H3)
Format: biochemical
Experimental: The acetylation effect of KAT6A on histone substrate H3 was determined using the TR-FRET (time-resolved fluorescence resonance energy transfer) method.
• 1) The compounds prepared in the examples of the present disclosure were each dissolved in dimethylsulfoxide to give solutions at a concentration of 10 mmol/L, and then the solutions were diluted to 0.2 mmol/L, i.e., 1 µL of the compound was added to 49 µL of DMSO, and 3-fold dilution was performed to give 10 concentrations. • 2) 50 nL of the test compounds (example compounds) were transferred to 384 reaction plates using Echo, two replicates for each compound, and the plates were centrifuged at a rotation speed of 1000 rpm for 1 min, the final concentration of dimethylsulfoxide (DMSO) being 0.5%. • 3) 2.5 µL of the reaction mixtures obtained in step 2 was added to the 384 reaction plates in step 2), and the plates were centrifuged at 1000 rpm for 1 min and incubated at 25 °C for 10 min. • 4) 2.5 µL of Bio-H3&AcCOA (acetyl-CoA) reaction solution was added to the 384 reaction plates in step 3), and the plates were centrifuged at a rotation speed of 1000 rpm for 1 min and incubated at 25 °C for 90 min. • 5) 5 µL of Eu-Ab& Ulight-SA detection solution was added to the 384 reaction plates in step 4), and the plates were centrifuged at 1000 rpm for 1 min and incubated at 25 °C for 60 min. • 6) The HTRF […] signals were read using a BMG high-throughput drug-screening multi-mode microplate reader.
The acetylation level of the histone H3 was analyzed by the GraphPad Prism 8 software. The reading of the negative control (0.5% DMSO wells) was set as 0% inhibition rate, and the reading of the positive control (wells with the highest concentration of the control compound) was set as 100% inhibition rate. The inhibition rates were calculated, and then IC50 values (half maximal inhibitory concentration) of test compounds were obtained by using a software nonlinear fitting formula; [formula]
Datapositive control: mean of positive control well values; Datanegative control: mean of negative control well values. Table 3. Enzymatic inhibitory activity of example compounds

T1 sequence (Q92794 whole entry): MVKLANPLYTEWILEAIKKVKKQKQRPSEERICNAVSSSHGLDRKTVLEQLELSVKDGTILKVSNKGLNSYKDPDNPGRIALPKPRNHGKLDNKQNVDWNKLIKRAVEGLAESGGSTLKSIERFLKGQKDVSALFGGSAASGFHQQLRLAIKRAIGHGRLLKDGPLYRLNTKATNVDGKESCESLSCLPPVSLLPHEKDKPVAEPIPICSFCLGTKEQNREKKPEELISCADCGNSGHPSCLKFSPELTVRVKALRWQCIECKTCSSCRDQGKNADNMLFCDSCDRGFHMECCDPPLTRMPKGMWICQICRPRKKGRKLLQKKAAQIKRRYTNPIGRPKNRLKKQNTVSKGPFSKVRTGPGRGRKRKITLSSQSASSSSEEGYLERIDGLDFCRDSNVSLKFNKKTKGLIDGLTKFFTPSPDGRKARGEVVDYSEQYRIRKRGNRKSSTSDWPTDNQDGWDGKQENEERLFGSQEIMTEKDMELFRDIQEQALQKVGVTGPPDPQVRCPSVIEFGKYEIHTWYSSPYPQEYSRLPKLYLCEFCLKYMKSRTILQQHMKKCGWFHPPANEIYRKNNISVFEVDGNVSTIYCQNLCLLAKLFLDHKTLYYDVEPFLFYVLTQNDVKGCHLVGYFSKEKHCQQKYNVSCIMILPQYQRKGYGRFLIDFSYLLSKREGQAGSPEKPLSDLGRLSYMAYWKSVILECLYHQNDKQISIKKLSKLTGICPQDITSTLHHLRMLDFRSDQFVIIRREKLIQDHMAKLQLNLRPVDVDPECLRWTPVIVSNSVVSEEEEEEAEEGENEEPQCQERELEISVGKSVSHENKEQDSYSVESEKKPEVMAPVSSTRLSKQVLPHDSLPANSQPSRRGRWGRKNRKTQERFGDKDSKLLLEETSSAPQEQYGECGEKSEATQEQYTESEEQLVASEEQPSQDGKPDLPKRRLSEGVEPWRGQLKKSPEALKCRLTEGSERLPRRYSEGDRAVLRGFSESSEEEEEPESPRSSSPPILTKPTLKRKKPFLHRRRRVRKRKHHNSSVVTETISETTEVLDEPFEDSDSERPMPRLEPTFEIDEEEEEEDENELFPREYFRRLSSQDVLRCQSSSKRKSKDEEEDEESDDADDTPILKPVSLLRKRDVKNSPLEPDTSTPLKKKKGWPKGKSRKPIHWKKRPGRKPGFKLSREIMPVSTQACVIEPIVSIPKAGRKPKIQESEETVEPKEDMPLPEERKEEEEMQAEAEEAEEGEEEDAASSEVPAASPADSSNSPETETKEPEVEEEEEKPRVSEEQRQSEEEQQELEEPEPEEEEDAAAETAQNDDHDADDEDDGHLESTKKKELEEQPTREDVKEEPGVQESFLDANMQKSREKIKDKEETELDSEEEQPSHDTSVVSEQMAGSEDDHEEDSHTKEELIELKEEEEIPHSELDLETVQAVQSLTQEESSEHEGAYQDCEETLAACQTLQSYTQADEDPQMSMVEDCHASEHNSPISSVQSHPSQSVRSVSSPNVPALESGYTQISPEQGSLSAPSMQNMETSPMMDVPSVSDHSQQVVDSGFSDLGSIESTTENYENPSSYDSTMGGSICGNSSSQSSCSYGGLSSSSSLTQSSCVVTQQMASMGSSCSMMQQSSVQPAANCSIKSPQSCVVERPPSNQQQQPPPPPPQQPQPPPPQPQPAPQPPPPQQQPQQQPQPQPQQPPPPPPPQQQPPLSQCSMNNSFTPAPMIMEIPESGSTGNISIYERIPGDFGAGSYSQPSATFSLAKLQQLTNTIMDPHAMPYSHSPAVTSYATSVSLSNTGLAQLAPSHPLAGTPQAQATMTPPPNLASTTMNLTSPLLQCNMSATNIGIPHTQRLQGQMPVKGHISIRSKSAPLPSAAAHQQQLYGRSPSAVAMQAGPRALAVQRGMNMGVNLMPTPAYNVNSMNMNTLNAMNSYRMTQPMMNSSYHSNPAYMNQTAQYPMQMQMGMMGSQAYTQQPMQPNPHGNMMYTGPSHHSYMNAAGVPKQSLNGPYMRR

| IC50 [nM] | SMILES |
| --- | --- |
| 7.97 | COc1ccc2occ(S(=O)(=O)Nc3noc4cc(Cn5cccn5)nc(OC)c34)c2c1 [Example 78, N-(6-((1H-Pyrazol-1-yl)methyl)-4-methoxyisoxazolo[4,5-c]pyridin-3-yl)-5-methoxybenzofuran-3-sulfonamide] |
| 22.7 | COc1nc(Cn2cccn2)cc2onc(NS(=O)(=O)c3cccc4nc(C)oc34)c12 [Example 48, N-(6-((1H-Pyrazol-1-yl)methyl)-4-methoxyisoxazolo[4,5-c]pyridin-3-yl)-2-methylbenzo[d]oxazole-7-sulfonamide] |
| 1.86 | [2H]C1Oc2cc(S(=O)(=O)Nc3noc4cc(Cn5cccn5)nc(OC)c34)c(OC)cc2C1[2H] (stereo not drawn) [Example 103, N-(6-((1H-pyrazol-1-yl)methyl)-4-methoxyisoxazolo[4,5-c]pyridin-3-yl)-5-methoxy-2,3-dihydrobenzofuran-6-sulfonamide-2,3-d2] |
| 1.06 | COc1ccc2c(c1S(=O)(=O)Nc1noc3cc(Cn4cccn4)nc(OC)c13)OC(C)(C)C2 [Example 100, N-(6-((1H-pyrazol-1-yl)methyl)-4-methoxyisoxazolo[4,5-c]pyridin-3-yl)-6-methoxy-2,2-dimethyl-3H-benzofuran-7-sulfonamide] |
| 1.77 | [2H]C([2H])(c1cc2onc(NS(=O)(=O)c3cc4c(cc3OC)CCO4)c2c(OC)n1)n1cccn1 [Example 104, N-(6-((1H-pyrazol-1-yl)methyl-d2)-4-methoxyisoxazolo[4,5-c]pyridin-3-yl)-5-methoxy-2,3-dihydrobenzofuran-6-sulfonamide] |
| 0.97 | COc1ccc2c(c1S(=O)(=O)Nc1noc3cc(Cn4cccn4)nc(OC)c13)OCCO2 [Example 73, N-(6-((1H-Pyrazol-1-yl)methyl)-4-methoxyisoxazolo[4,5-c]pyridin-3-yl)-6-methoxy-2,3-dihydrobenzo[b][1,4]dioxine-5-sulfonamide] |
| 4.49 | COc1ccc2ccoc2c1S(=O)(=O)Nc1noc2cc(Cn3ccc(C)n3)nc(OC)c12 [Example 71, 6-Methoxy-N-(4-methoxy-6-((3-methyl-1H-pyrazol-1-yl)methyl)isoxazolo[4,5-c]pyridin-3-yl)benzofuran-7-sulfonamide] |
| 12.6 | COc1cc2c(cc1S(=O)(=O)Nc1noc3cc(Cn4nccn4)nc(OC)c13)CCCC2 [Example 34, N-(6-((2H-1,2,3-Triazol-2-yl)methyl)-4-methoxyisoxazolo[4,5-c]pyridin-3-yl)-3-methoxy-5,6,7,8-tetrahydronaphthalene-2-sulfonamide] |
| 1.31 | COc1cc2c(cc1S(=O)(=O)Nc1noc3cc(Cn4cccn4)nc(OC)c13)OCCC2 [Example 67, N-(6-((1H-Pyrazol-1-yl)methyl)-4-methoxyisoxazolo[4,5-c]pyridin-3-yl)-6-methoxy-3,4-dihydro-1H-benzopyran-7-sulfonamide] |
| 0.85 | COc1cc2c(cc1S(=O)(=O)Nc1noc3cc(Cn4cccn4)nc(OC)c13)CCC2 [Example 70, N-(6-((1H-Pyrazol-1-yl)methyl)-4-methoxyisoxazolo[4,5-c]pyridin-3-yl)-6-methoxy-2,3-dihydro-1H-indene-5-sulfonamide] |
| 17.6 | COc1cc2c(cc1S(=O)(=O)Nc1noc3cc(C(F)(F)n4cccn4)nc(OC)c13)CCCC2 [Example 91, N-(6-(Difluoro(1H-pyrazol-1-yl)methyl)-4-methoxyisoxazolo[4,5-c]pyridin-3-yl)-3-methoxy-5,6,7,8-tetrahydronaphthalene-2-sulfonamide] |
| 2.37 | COc1ccc(S(=O)(=O)Nc2noc3cc(Cn4cccn4)nc(OC)c23)c2c1C=CCO2 [Example 94, N-(6-((1H-Pyrazol-1-yl)methyl)-4-methoxyisoxazolo[4,5-c]pyridin-3-yl)-5-methoxy-2H-benzopyran-8-sulfonamide] |
| 66.7 | COc1nc(Cn2nccn2)cc2onc(NS(=O)(=O)c3cccc4c3OCC4)c12 [Example 12, N-(6-((2H-1,2,3-Triazol-2-yl)methyl)-4-methoxyisoxazolo[4,5-c]pyridin-3-yl)-2,3-dihydrobenzofuran-7-sulfonamide] |

More lines, now with the values behind:

| SMILES | IC50 [nM] |
| --- | --- |
| COc1cc2occc2cc1S(=O)(=O)Nc1noc2cc(Cn3cccn3)nc(OC)c12 [Example 108, N-(6-((1H-pyrazol-1-yl)methyl)-4-methoxyisoxazolo[4,5-c]pyridin-3-yl)-6-methoxybenzofuran-5-sulfonamide] | 1.26 |
| COc1cc2c(ccn2C)cc1S(=O)(=O)Nc1noc2cc(Cn3cccn3)nc(OC)c12 [Example 69, N-(6-((1H-Pyrazol-1-yl)methyl)-4-methoxyisoxazolo[4,5-c]pyridin-3-yl)-6-methoxy-1-methyl-1H-indole-5-sulfonamide] | 0.87 |
| COc1nc(Cn2cccn2)cc2onc(NS(=O)(=O)c3cc(C#N)cc4c3OCCC4)c12 [Example 107, N-(6-((1H-pyrazol-1-yl)methyl)-4-methoxyisoxazolo[4,5-c]pyridin-3-yl)-6-cyano-3,4-dihydro-1H-benzopyran-8-sulfonamide] | 5.86 |
| COc1ccc2ccoc2c1S(=O)(=O)Nc1noc2cc(Cn3cc(C)cn3)nc(OC)c12 [Example 83, 6-Methoxy-N-(4-methoxy-6-((4-methyl-1H-pyrazol-1-yl)methyl)isoxazolo[4,5-c]pyridin-3-yl)benzofuran-7-sulfonamide] | 4.12 |
| C#Cc1ccc(S(=O)(=O)Nc2noc3cc(Cn4cccn4)nc(OC)c23)c2occc12 [Example 96, N-(6-((1H-pyrazol-1-yl)methyl)-4-methoxyisoxazolo[4,5-c]pyridin-3-yl)-4-ethynyl-benzofuran-7-sulfonamide] | 6.67 |
| C#Cc1ccc(S(=O)(=O)Nc2noc3cc(Cn4cccn4)nc(OC)c23)c2c1CCO2 [Example 33, N-(6-((1H-Pyrazol-1-yl)methyl)-4-methoxyisoxazolo[4,5-c]pyridin-3-yl)-4-ethynyl-2,3-dihydrobenzofuran-7-sulfonamide] | 3.13 |
| COc1c(S(=O)(=O)Nc2noc3cc(Cn4cccn4)nc(OC)c23)ccc2ccoc12 [Example 86, N-(6-((1H-Pyrazol-1-yl)methyl)-4-methoxyisoxazolo[4,5-c]pyridin-3-yl)-7-methoxybenzofuran-6-sulfonamide] | 10 |
| COc1nc(C(F)n2cccn2)cc2onc(NS(=O)(=O)c3cccc4c3OCC4)c12 (stereo not drawn) [Example 18, N-(6-(Fluoro(1H-pyrazol-1-yl)methyl)-4-methoxyisoxazolo[4,5-c]pyridin-3-yl)-2,3-dihydrobenzofuran-7-sulfonamide] | 7.23 |
| COc1nc(Cc2cocn2)cc2onc(NS(=O)(=O)c3cccc4c3OCCO4)c12 [Example 31, N-(4-Methoxy-6-(oxazol-4-ylmethyl)isoxazolo[4,5-c]pyridin-3-yl)-2,3-dihydrobenzo[b][1,4]dioxine-5-sulfonamide] | 68.6 |
| COc1nc(Cn2cccn2)cc2onc(NS(=O)(=O)c3cccc4cccnc34)c12 [Example 46] | 1.67 |
| COc1nc(C(F)(F)n2cccn2)cc2onc(NS(=O)(=O)c3cccc4c3OCC4)c12 [Example 17, N-(6-(Difluoro(1H-pyrazol-1-yl)methyl)-4-methoxyisoxazolo[4,5-c]pyridin-3-yl)-2,3-dihydrobenzofuran-7-sulfonamide] | 8.67 |
| COc1ccc2c(c1S(=O)(=O)Nc1noc3cc(Cn4cccn4)nc(OC)c13)OC(C)(C)O2 [Example 74, N-(6-((1H-Pyrazol-1-yl)methyl)-4-methoxyisoxazolo[4,5-c]pyridin-3-yl)-5-methoxy-2,2-dimethyl-1,3-benzodioxolane-4-sulfonamide] | 1.77 |
| COc1cc2c(c(S(=O)(=O)Nc3noc4cc(Cn5cccn5)nc(OC)c34)c1)OC(C)(C)CC2 [Example 99] | 2.79 |
| COc1c(S(=O)(=O)Nc2noc3cc(Cn4cccn4)nc(OC)c23)ccc2c1OCO2 [Example 87, N-(6-((1H-Pyrazol-1-yl)methyl)-4-methoxyisoxazolo[4,5-c]pyridin-3-yl)-4-methoxy-1,3-benzodioxole-5-sulfonamide] | 2.67 |
| COc1nc(Cn2cccn2)cc2onc(NS(=O)(=O)c3cccc4c3OC(F)(F)O4)c12 [Example 51, N-(6-((1H-Pyrazol-1-yl)methyl)-4-methoxyisoxazolo[4,5-c]pyridin-3-yl)-2,2-difluorobenzodioxole-4-sulfonamide] | 18.2 |
| COc1ccc(S(=O)(=O)Nc2noc3cc(Cn4cccn4)nc(OC)c23)c2c1CCO2 [Example 72, N-(6-((1H-Pyrazol-1-yl)methyl)-4-methoxyisoxazolo[4,5-c]pyridin-3-yl)-4-methoxy-2,3-dihydrobenzofuran-7-sulfonamide] | 5.1 |
| COc1nc(Cn2cccn2)cc2onc(NS(=O)(=O)c3ccc4c(c3)CN(C)C(=O)O4)c12 [Example 54, N-(6-((1H-Pyrazol-1-yl)methyl)-4-methoxyisoxazolo[4,5-c]pyridin-3-yl)-3-methyl-2-oxo-3,4-dihydro-2H-benzoxazine-6-sulfonamide] | 110 |
